Assay results reported in US20240130994A1, “IONIC LIQUID FORMULATIONS FOR TREATING DIABETES” (i2O Therapeutics, Inc., priority 2020, published 2024).

Test: Physical form of choline-based ionic liquids at room temperature
Assay type: physicochemical
Method: Several ionic liquids comprising choline as a cation and various anions were synthesized. […] For anions not miscible with the aqueous choline bicarbonate solution, a co-solvent, such as ethanol, was added until a homogenous mixture formed. The mixture was stirred at room temperature until CO2 evolution ceased. Solvent was removed by rotary evaporation at 60° C. for 20 minutes, and each product was dried in a vacuum oven for 48 hours at 60° C.

[1] = cation:anion 1:1, room temperature
[2] = cation:anion 1:2, room temperature
[3] = cation:anion 2:1, room temperature

SMILES | Physical Form (Ratios Listed as Cation:Anion) [1] | Physical Form (Ratios Listed as Cation:Anion) [2] | other results
CCCCCC[C@@H](O)C/C=C\CCCCCCCC(=O)O [Ricinoleic Acid] | Liquid at 1:1, 1:2 | Liquid at 1:1, 1:2 | 
CC(C)C1=CC2=CC[C@@H]3[C@](C)(CCC[C@@]3(C)C(=O)O)[C@H]2CC1 [Abietic Acid] | Solid at 1:1 |  | 
CCCCCCCCCCCC(=O)O [Lauric Acid] | Solid at 1:1, 1:2 | Solid at 1:1, 1:2 | 
O=C1CC[C@@H](C(=O)O)N1 [Pyroglutamic Acid] | Solid | Liquid | 
O=C(O)CCCC[C@@H]1CCSS1 [(R)-α-Lipoic Acid] | Solid at 2:1, 1:1, 1:2, | Solid at 2:1, 1:1, 1:2, | Physical Form (Ratios Listed as Cation:Anion) [3]: Solid at 2:1, 1:1, 1:2,
CCC(C)CCC(=O)O (stereo not drawn) [4-Methylhexanoic Acid] | Liquid at 1:1, 1:2 | Liquid at 1:1, 1:2 | 
CCCCCCCCC(CCCCCC)C(=O)O (stereo not drawn) [2-Hexyldecanoic Acid] | Liquid at 1:1 |  | 
CCCCCCCC/C=C\CCCCCCCC(=O)O [Oleic Acid] | Solid at 1:1, 1:2 | Solid at 1:1, 1:2 | 
CCCCCC(=O)O [Hexanoic Acid] | Liquid at 1:1, 1:2 | Liquid at 1:1, 1:2 | 
CCCCCCCCCC(=O)O [Decanoic Acid] | Solid | Solid | Physical Form (Ratios Listed as Cation:Anion) (cation:anion 1:1, room temperature, listed as decanoic acid): solid; Physical Form (Ratios Listed as Cation:Anion) (cation:anion 1:2, room temperature, listed as decanoic acid): solid; Physical Form (Ratios Listed as Cation:Anion) [3]: Liquid; Physical Form (Ratios Listed as Cation:Anion) (cation:anion 2:1, room temperature, listed as decanoic acid): liquid; appearance and physical form (room temperature, ratio as in label): waxy solid
N[C@@H](CCC(=O)N[C@@H](CS)C(=O)NCC(=O)O)C(=O)O [L-Glutathione reduced] |  |  | Physical Form (Ratios Listed as Cation:Anion) [3]: Solid at 2:1

Continued, in another order:

Physical Form (Ratios Listed as Cation:Anion) [1] | Physical Form (Ratios Listed as Cation:Anion) [2] | SMILES | other results
Liquid at 1:1, 1:2 | Liquid at 1:1, 1:2 | C/C=C/C(=O)O [Crotonic Acid] | 
Solid at 1:1 |  | COc1cc(C(=O)O)ccc1O [Vanillic Acid] | 
Solid | Liquid | O=P(O)(O)O [Phosphoric Acid] | Physical Form (Ratios Listed as Cation:Anion) [3]: Liquid
Solid at 1:1 |  | O=C(O)/C=C/c1ccc(O)c(O)c1 [Caffeic Acid] | 
Liquid at 1:1, 1:2 | Liquid at 1:1, 1:2 | CC(O)C(=O)O (stereo not drawn) [Lactic Acid] | 
Solid at 1:1 |  | O=c1oc2c(O)c(O)cc3c(=O)oc4c(O)c(O)cc1c4c23 [Ellagic Acid] | 
Liquid at 1:1, 1:2 | Liquid at 1:1, 1:2 | CCCC/C=C/CC(=O)O [Trans-3-Octenoic Acid] | 
Liquid at 2:1, 1:1 |  | O=C(O)CO [Glycolic Acid] | Physical Form (Ratios Listed as Cation:Anion) [3]: Liquid at 2:1, 1:1
Solid at 1:1 |  | O=C1O[C@H]([C@@H](O)CO)C(O)=C1O [L-Ascorbic Acid] | 
Solid |  | C/C(=C\C(=O)O)C(=O)O [Mesaconic Acid] | Physical Form (Ratios Listed as Cation:Anion) [3]: Liquid
Solid at 1:1 |  | CCCCC/C=C\C/C=C\C/C=C\C/C=C\CCCC(=O)O [Arachidonic Acid] | 
Solid at 1:1 |  | CC(C)Cc1ccc(C(C)C(=O)O)cc1 (stereo not drawn) [2-(4-Isobutylphenyl)propionic Acid] | 
Solid at 1:1, 1:2 | Solid at 1:1, 1:2 | CCCCCCC/C=C/C(=O)O [Trans-2-Decenoic Acid] | 
Liquid at 1:1, 1:2 | Liquid at 1:1, 1:2 | C=CCCCCCC(=O)O [Trans-7-Octenoic Acid] | 
